Test results: patent publication US10385067B2, “Sodium (2R,5S,13aR)-7,9-dioxo-10-((2,4,6-trifluorobenzyl)carbamoyl)-2,3,4,5,7,9,13,13a-octahydro-2,5-methanopyrido[1′,2′:4,5]pyrazino[2,1-b][1,3]oxazepin-8-olate” (Gilead Sciences, Inc., priority 2014, dated 2019)

Experiments:
HIV = conditions: as discussed in co-pending U.S. Ser. No. 14/133,855 and PCT US2013/076367; cited from earlier work
[1] = Stability on storage under accelerated conditions; format: physicochemical; conditions: after four weeks of storage under accelerated conditions
Protocol: The stability of sodium (2R,5S,13aR)-7,9-dioxo-10-((2,4,6-trifluorobenzyl)carbamoyl)-2,3,4,5,7,9,13,13a-octahydro-2,5-methanopyrido[1′,2′:4,5]pyrazino[2,1-b][1,3]oxazepin-8-olate Form I was tested. […] In Table 5, AN refers to area normalization and is the relative peak area of the active with respect to other impurities and components contained in the sample. LS refers to labile strength and is the amount of active present relative to the theoretical amount.

stability [1] | Structure (SMILES) | anti-viral activity (HIV)
 | O=C(NCc1c(F)cc(F)cc1F)c1cn2c(c(O)c1=O)C(=O)N1[C@H]3CC[C@H](C3)O[C@@H]1C2 [Formula I, (2R,5S,13aR)-8-hydroxy-7,9-dioxo-N-(2,4,6-trifluorobenzyl)-2,3,4,5,7,9,13,13a-octahydro-2,5-methanopyrido[1′,2′:4,5]pyrazino[2,1-b][1,3]oxazepine-10-carboxamide] | demonstrates anti-viral activity
stable | O=C(NCc1c(F)cc(F)cc1F)c1cn2c(c([O-])c1=O)C(=O)N1[C@H]3CC[C@H](C3)O[C@@H]1C2.[Na+] [Formula II Form I, sodium (2R,5S,13aR)-7,9-dioxo-10-((2,4,6-trifluorobenzyl)carbamoyl)-2,3,4,5,7,9,13,13a-octahydro-2,5-methanopyrido[1′,2′:4,5]pyrazino[2,1-b][1,3]oxazepin-8-olate] | 
